Laboratory results taken from ChEMBL document CHEMBL1201862, “PubChem BioAssay data set” (2004).
Activity calls are given as the source filed them.

Key:
[1] = biological target: Botulinum neurotoxin type A (Clostridium botulinum (strain Hall / ATCC 3502 / NCTC 13319 / Type A), UniProt P0DPI1); assay: High-throughput multiplex microsphere dose response for inhibitors of toxin protease, specifically Botulinum neurotoxin light chain A protease, compounds from Cherry Pick 02.; type: functional; conditions: read-out: EC50_MICROM
[2] = biological target: Botulinum neurotoxin type F (Clostridium botulinum, UniProt P30996); assay: High-throughput multiplex microsphere dose response for inhibitors of toxin protease, specifically Botulinum neurotoxin light chain F protease, compounds from Cherry Pick 02.; type: functional; conditions: read-out: EC50_MICROM
[3] = biological target: T1, Apoptotic protease-activating factor 1 (Homo sapiens, UniProt O14727); assay: SAR analysis of small molecule inhibitors of Apaf-1 in a Fluorescent assay.; type: functional; conditions: read-out: IC50_Mean
T1 sequence (O14727 whole entry): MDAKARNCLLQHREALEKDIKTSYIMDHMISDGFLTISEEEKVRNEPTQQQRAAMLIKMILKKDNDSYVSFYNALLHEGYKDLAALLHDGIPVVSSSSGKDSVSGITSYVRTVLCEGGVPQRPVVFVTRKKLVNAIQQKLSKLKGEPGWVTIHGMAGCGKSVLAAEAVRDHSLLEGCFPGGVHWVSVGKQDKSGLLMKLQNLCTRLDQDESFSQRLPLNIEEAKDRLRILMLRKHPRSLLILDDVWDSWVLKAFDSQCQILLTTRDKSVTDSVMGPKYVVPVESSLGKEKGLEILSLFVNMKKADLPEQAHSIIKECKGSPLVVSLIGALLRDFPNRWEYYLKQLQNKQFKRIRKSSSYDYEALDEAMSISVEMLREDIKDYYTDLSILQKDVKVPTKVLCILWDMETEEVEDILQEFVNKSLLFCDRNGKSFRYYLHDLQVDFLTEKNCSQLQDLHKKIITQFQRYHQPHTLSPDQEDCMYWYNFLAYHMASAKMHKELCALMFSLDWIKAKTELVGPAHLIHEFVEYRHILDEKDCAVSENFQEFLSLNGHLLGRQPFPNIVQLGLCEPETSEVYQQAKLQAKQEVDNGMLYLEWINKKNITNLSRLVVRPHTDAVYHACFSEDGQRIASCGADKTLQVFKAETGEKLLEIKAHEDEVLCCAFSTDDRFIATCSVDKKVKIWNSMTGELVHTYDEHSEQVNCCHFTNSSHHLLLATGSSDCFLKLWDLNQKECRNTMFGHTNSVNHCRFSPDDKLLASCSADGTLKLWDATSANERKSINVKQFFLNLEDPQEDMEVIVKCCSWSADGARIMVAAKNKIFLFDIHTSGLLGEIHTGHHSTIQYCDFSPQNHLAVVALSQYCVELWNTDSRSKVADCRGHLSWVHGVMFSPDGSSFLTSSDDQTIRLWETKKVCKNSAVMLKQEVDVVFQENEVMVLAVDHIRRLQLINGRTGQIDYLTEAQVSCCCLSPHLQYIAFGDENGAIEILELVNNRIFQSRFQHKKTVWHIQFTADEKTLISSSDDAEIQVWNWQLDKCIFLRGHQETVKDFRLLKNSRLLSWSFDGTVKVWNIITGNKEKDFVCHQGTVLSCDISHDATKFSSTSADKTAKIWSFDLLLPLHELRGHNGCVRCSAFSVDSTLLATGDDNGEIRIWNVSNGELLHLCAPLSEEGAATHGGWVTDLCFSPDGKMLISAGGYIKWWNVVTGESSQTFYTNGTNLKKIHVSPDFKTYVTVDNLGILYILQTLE

[4] = biological target: ALK tyrosine kinase receptor (Homo sapiens, UniProt Q9UM73); type: functional;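 further: ALK tested as one member of a kinase panel screen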
Sequence of ALK tyrosine kinase receptor (Q9UM73 whole entry): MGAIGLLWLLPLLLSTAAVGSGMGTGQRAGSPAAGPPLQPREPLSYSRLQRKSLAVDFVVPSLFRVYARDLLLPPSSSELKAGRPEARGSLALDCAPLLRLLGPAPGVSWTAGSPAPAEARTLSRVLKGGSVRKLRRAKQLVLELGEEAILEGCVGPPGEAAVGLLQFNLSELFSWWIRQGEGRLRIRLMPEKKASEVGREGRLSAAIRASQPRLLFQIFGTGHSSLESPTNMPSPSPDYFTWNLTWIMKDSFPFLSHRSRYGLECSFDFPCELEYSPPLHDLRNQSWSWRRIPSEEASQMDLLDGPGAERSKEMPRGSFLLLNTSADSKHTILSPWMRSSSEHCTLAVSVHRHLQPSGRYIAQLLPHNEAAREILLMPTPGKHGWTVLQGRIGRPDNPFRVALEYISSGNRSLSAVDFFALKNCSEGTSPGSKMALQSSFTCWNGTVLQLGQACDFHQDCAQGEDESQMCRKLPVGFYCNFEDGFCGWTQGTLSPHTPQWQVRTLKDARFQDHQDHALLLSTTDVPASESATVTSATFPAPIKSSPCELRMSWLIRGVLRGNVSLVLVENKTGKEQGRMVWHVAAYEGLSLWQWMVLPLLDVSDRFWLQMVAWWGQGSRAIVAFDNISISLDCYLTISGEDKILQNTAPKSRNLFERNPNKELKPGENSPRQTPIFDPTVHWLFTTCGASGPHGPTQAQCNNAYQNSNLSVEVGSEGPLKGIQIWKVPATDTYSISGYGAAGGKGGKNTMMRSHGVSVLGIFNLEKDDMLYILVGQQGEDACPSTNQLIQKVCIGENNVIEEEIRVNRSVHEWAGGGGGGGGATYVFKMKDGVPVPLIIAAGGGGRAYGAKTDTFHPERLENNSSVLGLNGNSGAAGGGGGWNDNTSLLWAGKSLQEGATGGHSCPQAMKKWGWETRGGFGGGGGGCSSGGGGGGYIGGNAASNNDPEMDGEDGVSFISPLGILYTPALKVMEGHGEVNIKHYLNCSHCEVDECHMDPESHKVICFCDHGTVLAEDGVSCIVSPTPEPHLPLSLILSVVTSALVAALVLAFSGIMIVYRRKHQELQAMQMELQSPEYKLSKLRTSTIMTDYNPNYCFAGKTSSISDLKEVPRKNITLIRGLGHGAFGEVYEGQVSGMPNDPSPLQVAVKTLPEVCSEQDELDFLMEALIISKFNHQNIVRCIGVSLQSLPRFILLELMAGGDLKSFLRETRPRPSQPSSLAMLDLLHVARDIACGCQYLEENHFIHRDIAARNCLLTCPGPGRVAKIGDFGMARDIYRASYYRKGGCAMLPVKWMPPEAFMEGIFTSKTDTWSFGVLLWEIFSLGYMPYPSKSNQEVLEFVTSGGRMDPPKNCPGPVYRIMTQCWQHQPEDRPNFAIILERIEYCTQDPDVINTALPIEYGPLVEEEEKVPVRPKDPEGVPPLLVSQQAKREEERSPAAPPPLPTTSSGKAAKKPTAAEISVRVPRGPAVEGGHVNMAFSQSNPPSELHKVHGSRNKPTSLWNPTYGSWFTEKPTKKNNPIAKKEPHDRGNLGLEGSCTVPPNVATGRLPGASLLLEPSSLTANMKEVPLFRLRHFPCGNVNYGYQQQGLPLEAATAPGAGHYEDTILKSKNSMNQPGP

[5] = biological target: Serine/threonine-protein kinase D3 (Homo sapiens, UniProt O94806); type: functional;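 further: determined within a kinase panel screen, with PRKCN as the panel member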
[6] = biological target: Tyrosine-protein kinase Lck (Homo sapiens, UniProt P06239); type: functional;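 further: lck was assayed as one member of a kinase panel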
[7] = biological target: Death-associated protein kinase 3 (Homo sapiens, UniProt O43293); type: functional;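 further: measured as one member of a kinome-wide profiling panel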
Activin receptor type-1 = Activin receptor type-1 (Homo sapiens, UniProt Q04771); assay: Navigating the Kinome. Panel member name: ACVR1; type: functional
Sequence of Activin receptor type-1 (Q04771 whole entry): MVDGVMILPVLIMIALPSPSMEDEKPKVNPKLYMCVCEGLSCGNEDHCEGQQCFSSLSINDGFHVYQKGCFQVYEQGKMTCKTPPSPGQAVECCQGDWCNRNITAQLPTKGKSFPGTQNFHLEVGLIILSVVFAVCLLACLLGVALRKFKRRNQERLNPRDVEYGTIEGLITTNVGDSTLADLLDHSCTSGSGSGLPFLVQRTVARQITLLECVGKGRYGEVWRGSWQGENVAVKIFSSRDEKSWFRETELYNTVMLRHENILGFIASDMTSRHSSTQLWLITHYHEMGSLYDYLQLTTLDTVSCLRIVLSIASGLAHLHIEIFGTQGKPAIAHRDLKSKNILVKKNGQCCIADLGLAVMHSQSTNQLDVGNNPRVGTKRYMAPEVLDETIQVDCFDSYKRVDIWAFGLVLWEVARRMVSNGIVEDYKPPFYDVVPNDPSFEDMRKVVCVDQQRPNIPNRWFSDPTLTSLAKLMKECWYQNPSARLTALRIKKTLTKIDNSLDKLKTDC

[8] = biological target: Mitogen-activated protein kinase 8 (Homo sapiens, UniProt P45983); type: functional;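 further: value comes from one member of a kinome-wide kinase profiling panel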
[9] = biological target: Serine/threonine-protein kinase pim-1 (Homo sapiens, UniProt P11309); type: functional
[10] = biological target: Tyrosine-protein kinase BTK (Homo sapiens, UniProt Q06187); type: functional
[11] = biological target: Serine/threonine-protein kinase PAK 4 (Homo sapiens, UniProt O96013); type: functional;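 further: value obtained within a kinome profiling panel in which PAK4 was one of the panel members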
[12] = biological target: Fibroblast growth factor receptor 1 (Homo sapiens, UniProt P11362); type: functional
[13] = biological target: Casein kinase I isoform alpha (Homo sapiens, UniProt P48729); type: functional
[14] = biological target: Tyrosine-protein kinase JAK3 (Homo sapiens, UniProt P52333); type: functional
[15] = biological target: Serine/threonine-protein kinase TAO1 (Homo sapiens, UniProt Q7L7X3); type: functional
Sequence of Serine/threonine-protein kinase TAO1 (Q7L7X3 whole entry): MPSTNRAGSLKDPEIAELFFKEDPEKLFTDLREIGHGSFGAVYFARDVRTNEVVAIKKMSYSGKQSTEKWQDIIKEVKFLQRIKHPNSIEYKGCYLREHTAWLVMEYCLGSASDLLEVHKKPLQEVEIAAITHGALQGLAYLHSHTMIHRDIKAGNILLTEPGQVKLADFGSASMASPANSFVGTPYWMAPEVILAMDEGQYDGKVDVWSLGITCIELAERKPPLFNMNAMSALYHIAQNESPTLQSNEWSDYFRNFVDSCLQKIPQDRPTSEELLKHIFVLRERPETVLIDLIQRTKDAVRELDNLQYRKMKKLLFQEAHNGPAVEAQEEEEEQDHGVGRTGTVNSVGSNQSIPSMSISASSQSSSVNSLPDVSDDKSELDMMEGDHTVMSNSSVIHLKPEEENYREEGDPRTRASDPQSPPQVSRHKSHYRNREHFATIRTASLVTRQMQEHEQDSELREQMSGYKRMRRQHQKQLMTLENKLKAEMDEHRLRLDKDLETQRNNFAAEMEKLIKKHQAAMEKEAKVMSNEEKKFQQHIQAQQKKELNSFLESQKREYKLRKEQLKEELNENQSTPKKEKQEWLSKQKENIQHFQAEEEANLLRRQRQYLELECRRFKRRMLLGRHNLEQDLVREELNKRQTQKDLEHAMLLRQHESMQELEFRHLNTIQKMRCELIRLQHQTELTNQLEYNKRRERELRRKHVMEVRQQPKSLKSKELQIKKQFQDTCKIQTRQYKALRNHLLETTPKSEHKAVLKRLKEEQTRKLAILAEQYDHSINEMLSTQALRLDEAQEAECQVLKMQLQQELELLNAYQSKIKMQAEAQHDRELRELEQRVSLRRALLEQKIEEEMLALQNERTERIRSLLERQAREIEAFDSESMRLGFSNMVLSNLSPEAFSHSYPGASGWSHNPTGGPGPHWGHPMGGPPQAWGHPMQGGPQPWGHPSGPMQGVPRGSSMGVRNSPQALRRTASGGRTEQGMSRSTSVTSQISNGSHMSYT

[16] = biological target: Glycogen synthase kinase-3 alpha (Homo sapiens, UniProt P49840); type: functional;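 further: GSK3A result taken from a broad kinome-wide kinase panel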
[17] = biological target: Mitogen-activated protein kinase kinase kinase kinase 2 (Homo sapiens, UniProt Q12851); type: functional;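 further: measured as one member of a kinome-wide kinase panel, with MAP4K2 as the panel entry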
Sequence of Mitogen-activated protein kinase kinase kinase kinase 2 (Q12851 whole entry): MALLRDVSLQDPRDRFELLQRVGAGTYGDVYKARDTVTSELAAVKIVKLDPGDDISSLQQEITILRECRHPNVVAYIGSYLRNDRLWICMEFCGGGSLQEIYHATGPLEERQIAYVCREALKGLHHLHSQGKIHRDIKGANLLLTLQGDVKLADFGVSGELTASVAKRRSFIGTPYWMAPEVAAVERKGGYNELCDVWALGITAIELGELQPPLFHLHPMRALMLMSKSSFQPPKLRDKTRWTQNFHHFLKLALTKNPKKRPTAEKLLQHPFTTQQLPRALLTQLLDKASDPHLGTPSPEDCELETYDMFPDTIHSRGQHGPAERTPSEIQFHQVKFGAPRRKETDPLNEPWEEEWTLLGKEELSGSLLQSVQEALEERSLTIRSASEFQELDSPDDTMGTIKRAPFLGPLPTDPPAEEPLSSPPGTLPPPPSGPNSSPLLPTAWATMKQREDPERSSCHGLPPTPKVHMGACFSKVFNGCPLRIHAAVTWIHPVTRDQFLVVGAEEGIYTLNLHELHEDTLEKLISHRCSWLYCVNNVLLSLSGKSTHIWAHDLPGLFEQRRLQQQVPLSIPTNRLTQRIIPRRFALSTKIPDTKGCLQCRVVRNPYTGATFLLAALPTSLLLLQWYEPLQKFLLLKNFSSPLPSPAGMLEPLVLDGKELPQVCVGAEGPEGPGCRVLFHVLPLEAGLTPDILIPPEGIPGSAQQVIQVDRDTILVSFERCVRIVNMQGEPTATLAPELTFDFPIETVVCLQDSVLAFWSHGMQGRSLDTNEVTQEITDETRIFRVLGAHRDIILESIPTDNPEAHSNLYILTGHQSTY

[18] = biological target: Hepatocyte growth factor receptor (Homo sapiens, UniProt P08581); type: functional;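 further: kinase panel profiling across the kinome, with MET as the panel member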
[19] = biological target: Serine/threonine-protein kinase Chk1 (Homo sapiens, UniProt O14757); type: functional;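 further: measured as one member of a kinome-wide kinase profiling panel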
[20] = biological target: G protein-coupled receptor kinase 5 (Homo sapiens, UniProt P34947); assay: Navigating the Kinome. Panel member name: GPRK5; type: functional
[21] = biological target: Dual specificity tyrosine-phosphorylation-regulated kinase 1B (Homo sapiens, UniProt Q9Y463); assay: Navigating the Kinome. Panel member name: DYRK1B; type: functional
Sequence of Dual specificity tyrosine-phosphorylation-regulated kinase 1B (Q9Y463 whole entry): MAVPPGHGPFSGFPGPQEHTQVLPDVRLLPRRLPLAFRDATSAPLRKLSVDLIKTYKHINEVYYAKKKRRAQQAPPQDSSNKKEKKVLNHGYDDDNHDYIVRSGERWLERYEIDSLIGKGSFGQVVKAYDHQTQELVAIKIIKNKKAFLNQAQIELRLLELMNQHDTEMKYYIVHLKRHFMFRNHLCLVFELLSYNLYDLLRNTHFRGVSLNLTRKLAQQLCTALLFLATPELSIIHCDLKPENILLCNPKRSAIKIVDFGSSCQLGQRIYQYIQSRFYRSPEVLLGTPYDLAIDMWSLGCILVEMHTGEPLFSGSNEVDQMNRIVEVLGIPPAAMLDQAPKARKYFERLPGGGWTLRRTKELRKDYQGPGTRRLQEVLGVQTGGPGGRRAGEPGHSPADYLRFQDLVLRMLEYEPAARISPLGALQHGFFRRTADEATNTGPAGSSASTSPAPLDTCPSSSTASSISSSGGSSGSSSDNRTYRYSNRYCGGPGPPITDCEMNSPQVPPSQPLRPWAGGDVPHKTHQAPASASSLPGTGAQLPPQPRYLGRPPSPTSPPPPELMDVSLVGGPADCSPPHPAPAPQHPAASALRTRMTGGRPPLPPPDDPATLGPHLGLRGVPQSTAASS

[22] = biological target: cAMP-dependent protein kinase catalytic subunit PRKX (Homo sapiens, UniProt P51817); type: functional
[23] = biological target: Platelet-derived growth factor receptor alpha (Homo sapiens, UniProt P16234); assay: Navigating the Kinome. Panel member name: PDGFRA; type: functional
Aurora kinase B = Aurora kinase B (Homo sapiens, UniProt Q96GD4); type: functional
[24] = biological target: Tyrosine-protein kinase Fyn (Homo sapiens, UniProt P06241); type: functional
[25] = biological target: Serine/threonine-protein kinase Nek2 (Homo sapiens, UniProt P51955); type: functional
[26] = biological target: Cyclin-dependent kinase 8 (Homo sapiens, UniProt P49336); assay: Navigating the Kinome. Panel member name: CDK8; type: functional
[27] = biological target: Cyclin-dependent kinase 7 (Homo sapiens, UniProt P50613); type: functional;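 further: value comes from a kinome-wide kinase profiling panel in which CDK7 is one member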
[28] = biological target: Vascular endothelial growth factor receptor 1 (Homo sapiens, UniProt P17948); type: functional;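 further: measured within a kinome-wide profiling panel, FLT1 as the panel member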
[29] = biological target: Dual specificity protein kinase CLK4 (Homo sapiens, UniProt Q9HAZ1); type: functional
[30] = biological target: Mitogen-activated protein kinase kinase kinase kinase 4 (Homo sapiens, UniProt O95819); type: functional
[31] = biological target: Dual specificity tyrosine-phosphorylation-regulated kinase 1A (Homo sapiens, UniProt Q13627); type: functional;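 further: measured against DYRK1A as one member of a broad kinome profiling panel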
[32] = biological target: Calcium/calmodulin-dependent protein kinase type II subunit alpha (Homo sapiens, UniProt Q9UQM7); assay: Navigating the Kinome. Panel member name: CAMK2A; type: functional
[33] = biological target: Leukocyte tyrosine kinase receptor (Homo sapiens, UniProt P29376); assay: Navigating the Kinome. Panel member name: LTK; type: functional
[34] = biological target: Mitogen-activated protein kinase 14 (Homo sapiens, UniProt Q16539); type: functional;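 further: part of a kinome-wide panel, MAPK14 entry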
Sequence of Mitogen-activated protein kinase 14 (Q16539 whole entry): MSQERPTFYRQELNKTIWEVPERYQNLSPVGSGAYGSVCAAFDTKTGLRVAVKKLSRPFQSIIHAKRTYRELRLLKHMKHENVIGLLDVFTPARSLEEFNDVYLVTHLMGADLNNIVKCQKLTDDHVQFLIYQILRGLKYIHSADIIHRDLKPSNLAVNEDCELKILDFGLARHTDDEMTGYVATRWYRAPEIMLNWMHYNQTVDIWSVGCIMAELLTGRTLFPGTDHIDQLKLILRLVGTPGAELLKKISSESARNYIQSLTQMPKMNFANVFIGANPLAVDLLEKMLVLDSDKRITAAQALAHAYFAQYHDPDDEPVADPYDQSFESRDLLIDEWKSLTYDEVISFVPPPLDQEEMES

[35] = biological target: Heat shock protein HSP 90-alpha (Homo sapiens, UniProt P07900); type: functional, organism-based
[36] = biological target: T2, High affinity choline transporter 1 (Homo sapiens, UniProt Q9GZV3); assay: human choline transporter blockers, potency – cell-based, 5-point CRC, membrane potential dye, dose response (AID 504840); type: functional
T2 sequence (Q9GZV3 whole entry): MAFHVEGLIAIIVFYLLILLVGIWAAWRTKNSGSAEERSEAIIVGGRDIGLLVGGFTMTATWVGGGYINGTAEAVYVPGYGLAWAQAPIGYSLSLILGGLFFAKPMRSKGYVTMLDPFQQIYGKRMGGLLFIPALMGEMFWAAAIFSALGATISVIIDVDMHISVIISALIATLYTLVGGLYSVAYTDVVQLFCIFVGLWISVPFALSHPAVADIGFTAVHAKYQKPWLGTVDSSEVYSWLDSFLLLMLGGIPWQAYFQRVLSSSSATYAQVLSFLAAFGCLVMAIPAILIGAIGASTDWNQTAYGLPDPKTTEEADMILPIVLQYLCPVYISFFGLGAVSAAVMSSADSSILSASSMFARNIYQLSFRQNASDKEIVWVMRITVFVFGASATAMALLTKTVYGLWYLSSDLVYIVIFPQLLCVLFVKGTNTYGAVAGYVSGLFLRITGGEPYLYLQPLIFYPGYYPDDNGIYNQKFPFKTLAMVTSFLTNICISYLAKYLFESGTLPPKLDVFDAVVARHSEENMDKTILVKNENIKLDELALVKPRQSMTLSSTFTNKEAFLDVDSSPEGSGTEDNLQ

H9c2 = assay: cells; type: functional, cell-based; conditions: Rattus norvegicus, H9c2, Myocardium;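 further: confirmatory concentration-response retest of ultra-high-throughput screening hits for modulation of myocardial damage; cell death induced by hydrogen peroxide oxidative stress; compound pretreatment for 60 min then peroxide exposure for 2 h; potency is for protecting the cells against peroxide damage rather than for killing them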
[37] = biological target: T2, High affinity choline transporter 1; assay: human choline transporter blockers, potency – cell-based, 10-point CRC, membrane potential dye, dose response (AID 588401); type: functional;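 further: membrane potential dye fluorescence of choline-evoked depolarization via CHT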
[38] = biological target: Cyclin-dependent kinase 19 (Homo sapiens, UniProt Q9BWU1); assay: Navigating the Kinome. Panel member name: CDC2L6; type: functional

Q: O=C(Cc1ccccc1)c1ccccn1 was tested. Which EC50 [1] did it give?
A: The EC50 was 8.6 µM (active).

Q: And the EC50 [2]?
A: Its EC50 is > 20 µM (inactive).

Q: How did the IC50 [3] turn out when Cc1cc(NC(=O)C2CC2)sc1C(=O)Nc1ccc2[nH]c(-c3cc(F)ccc3F)nc2c1 was run?
A: Its IC50 is 42.4 µM (active).

Q: Which results are given for CCN1c2cc(N)ccc2-c2ccc(N)cc2C1(O)c1ccccc1 (configuration not stated)?
A: Ki [4]: > 6.31 µM (inactive); Ki [5]: 3.98 µM (active); Ki [6]: > 6.31 µM (inactive); Ki [7]: > 5.01 µM (inactive); Ki (Activin receptor type-1): > 3.98 µM (inactive); Ki [8]: > 5.01 µM (inactive); Ki [9]: > 6.31 µM (inactive); Ki [10]: 3.98 µM (active); Ki [11]: > 5.01 µM (inactive); Ki [12]: > 3.98 µM (inactive); Ki [13]: > 3.98 µM (inactive); Ki [14]: 3.16 µM (active); Ki [15]: 3.16 µM (active); Ki [16]: > 3.98 µM (inactive); Ki [17]: 2 µM (active); Ki [18]: 2.51 µM (active); Ki [19]: 2 µM (active); Ki [20]: > 3.98 µM (inactive); Ki [21]: 2.51 µM (active); Ki [22]: 2 µM (active); Ki [23]: 1.26 µM (active); Ki (Aurora kinase B): > 3.98 µM (inactive); Ki [24]: > 6.31 µM (inactive); Ki [25]: 2 µM (active); Ki [26]: > 3.98 µM (inactive); Ki [27]: > 3.98 µM (inactive); Ki [28]: 3.16 µM (active); Ki [29]: 0.398 µM (active); Ki [30]: 3.16 µM (active); Ki [31]: 0.794 µM (active); Ki [32]: > 3.98 µM (inactive); Ki [33]: 2 µM (active); Ki [34]: > 3.98 µM (inactive)

Q: For Oc1c(Br)cc(Br)cc1/C=N/Cc1ccccc1, which AC50 [35] is on record?
A: Its AC50 is 5.31 µM (active).

Q: And the IC50 [36]?
A: The IC50 was 9.73 µM (active).

Q: And the IC50 (H9c2)?
A: The IC50 was > 79 µM (inactive).

Q: And the IC50 [37]?
A: Its IC50 is 3.16 µM (active).

Q: For Cn1cc(Nc2ncc(Br)c(Nc3ccccc3S(C)(=O)=O)n2)cn1, which Ki [4] is on record?
A: The Ki was 2.51 µM (active).

Q: What about the Ki [38] of the same compound?
A: Its Ki is > 100 µM (inactive).
